The values below come from patent US6867186B2, “Cell-permeable protein inhibitors of calpain” (New England Medical Center Hospital, priority 1997, dated 2005).

The subject of one test is calpain. Briefly: Ionophore-dependent calpain degradation of ABP and talin in platelets. The class given is cell-based. The following applies: 5, 8, or 10 minutes A23187. The protocol:
To investigate whether calpastat inhibits calpain activity in platelets, the ionophore-dependent proteolysis of actin binding protein (ABP; about 280 kDa) and talin (about 240 kDa), both of which are substrates of both μ- and m-calpains, was examined as follows.
Platelets were pre-incubated with ZLLYCHN2, DMSO (solvent for ZLLY-CHN2), calpastat, or HEPES buffer (buffer for calpastat), and then treated with or without ionophore A23187 for 5, 8, or 10 minutes. The platelets were then gel-purified as described above. Whole cell lysates were prepared and fractionated by SDS polyacrylamide gel electrophoresis.

Test [1] deals with platelet rich plasma (PRP). Briefly: Platelet disk-to-sphere shape change after cold storage (ESC assay). The class given is cell-based. More on the design: cold storage of PRP, extent of shape change (ESC): dose or concentration left out as unconfirmed. The protocol:
Disk-to-sphere shape change was then assayed using the extent of shape change (ESC) assay (Holme et al., Transfusion 38:31-40, 1998). Briefly, samples of stored PRP were treated to induce disk-to-sphere shape change by cold storage and the addition of EDTA (to prevent aggregation). ADP was then added as a stimulus to measure ESC, and shape change was measured by determining light transmission through the sample. If the initial storage conditions caused considerable disk-to-sphere shape change, there would be little additional shape change upon addition of EDTA and ADP. Conversely, if the initial storage conditions caused little disk-to-sphere shape change, there would be considerable additional shape change upon addition of EDTA and ADP. The results of three experiments in which 24 hour storage of platelets at 4° C. was tested, in the presence and absence of calpastat, are shown in FIG. 12. The bracket labelled “fresh CDP” indicates the ESC that can be expected for fresh PRP in CPD, and the bracket marked “cold EDTA-treated PRP” indicates the ESC that can be expected for PRP subjected to cold storage in EDTA.
The day O control is an assay performed on fresh PRP with no cold storage in standard buffer.

As to “H-AAVALLPAVLLALLAPEKLGERDDTIPPEYRELLEKKTGV-OH [Calpastat]”, in the test with calpain, the “A23187-dependent calpain degradation of ABP and talin in platelets” value is recorded as “inhibited”. The “cold storage of PRP, extent of shape change (ESC)” value in test [1] (about 24 hours at 4° C., compared to EDTA) was “significantly improved cold storage”. Also, the “protection against disk-to-sphere shape change” value in test [1] (five days at 4° C.) was “considerable protection”.
